From paper PMC8495455, “Discovery of a transdermally deliverable pentapeptide for activating AdipoR1 to promote hair growth” (EMBO Molecular Medicine, 2021)
Where “and” joins values, the source holds several entries; their conditions need not be identical. Equal entries are not always repeated.

What was measured:
[1] = test system: human scalp HFs; experiment: Ex vivo human HF organ culture, hair shaft elongation; assay type: cell-based; conditions: 6 days, vs vehicle
Procedure: (§1) We next investigated whether P5 can reproduce the effects of APN on hair growth promotion ex vivo (Won et al, [2012]) using ex vivo human HF organ culture model. […] The Ki‐67‐positive cell portion of the matrix area in the P5‐treated HFs was higher than that in the vehicle‐treated group (Fig 3E).
The microdissected full‐length scalp HFs in anagen VI were cut at the level of sebaceous duct and then ex vivo cultured for 6 days at 37°C in a 5% CO2 atmosphere in Williams E medium (#12551032, Gibco) supplemented with hydrocortisone (10 ng/ml), insulin (10 µg/ml), L‐glutamine (2 mM), and penicillin‐streptomycin solution (1×). To avoid any potential bias in the length measurement from pseudo‐catagen progression, the total length of pigmented hair shaft of each HF was measured every three days to calculate the net length of elongated hair shaft and photographed in culture day 6 using a stereomicroscope (Olympus).

[2] = test system: AMPK phosphorylation in ORS cells; experiment: Western blot p-AMPK, ORS cells; assay type: cell-based, human; conditions: P5 0 - 50 μM, APN 2.5 μg/ml
From the text: Following the confirmation of the molecular interaction between AdipoR1 and P5, we evaluated the activation of the intracellular signaling pathway by P5. We investigated whether APN treatment on ORS and DP cells could activate AMPK or ERK signaling pathways, which are previously known to be downstream effectors of AdipoR1 (Mao et al, [2006]; Deepa & Dong, [2009]; Shibata et al, [2012]). […] Next, for determination of whether both P5 and APN mediates the phosphorylation of AMPK through AdipoR1 in ORS and DP cells, the cells were transfected with AdipoR1 siRNA (Appendix Fig S1). […] Collectively, P5 activates AMPK signaling pathway through AdipoR1 in ORS and DP cells in vitro.
(§2) Human ORS and DP cells or skin tissue were lysed (RIPA lysis buffer; #20‐188; Merck Millipore). The obtained protein was then separated by 8% SDS–PAGE and transferred to a polyvinylidene fluoride membrane (Amersham). The protein transferred membranes were incubated overnight with the specific antibodies. […] Antibody‐antigen complexes detected by enhanced chemiluminescent substrate (Thermo Fisher) were captured and quantified by Amersham imager 680 systems (GE Healthcare).

[3] = test system: FGF7 protein; experiment: Growth factor protein quantitation in DP cell medium, FGF7; assay type: cell-based, human; conditions: for protein_FGF7: DP cell medium
From the text: Next, we investigated the downstream effects of P5 on hair growth factor genes and proteins in DP cells. […] We tested whether P5 can also increase the mRNA levels and proteins of hair growth factors in DP cells: IGF‐1, VEGF, HGF, platelet‐derived growth factor alpha (PDGFA), and fibroblast growth factor (FGF) 7, which are known to induce or maintain the anagen phase of the hair cycle (Jindo et al, [1994]; Philpott et al, [1994]; Yano et al, [2001]; Jang, [2005]; Tomita et al, [2006]; Iino et al, [2007]).
Human DP cells were grown on a 100‐mm cell culture dish to 100% confluency. After washed by PBS three times, the cells were cultured with serum‐free DMEM and treated with P5. After 48 h, the medium was collected and filtered by a […]. The filtrate was then concentrated using a centrifugal concentrator (Vivaspin 6, 10‐kDa molecular weight cutoff, centrifuged 2,600 g at 4°C for 13 min, Sartorius Stedim Biotech). The signals of each protein in the concentrated media were detected and quantified, based on the enzyme‐linked immunosorbent assay (Human Cytokine Antibody Array C2000, RayBiotech).

[4] = test system: p-AMPK in ORS and DP cells of human HFs; experiment: IF staining p-AMPK of ex vivo cultured HF bulb; assay type: cell-based; conditions: vs vehicle
From the text: as §1
Paraffin‐embedded mouse cutaneous back tissue was sectioned (4 μm thickness) and stained with hematoxylin and eosin. For IF staining, human ORS cells cultured in FiTC‐P5, sectioned paraffin‐embedded human HFs (7 μm thickness), and sectioned paraffin‐embedded mouse cutaneous dorsal tissue or human skin tissue (5 μm thickness) were incubated at 4°C overnight with the following primary antibodies diluted in the diluent reagent (Invitrogen): phospho‐AMPK (#2535, 1:100; Cell Signaling), Ki‐67 (#M7240, 1:200; Dako), versican (#ab177480, 1:200; Abcam), or AdipoR1 antibody (#ab126611, 1:200; Abcam). After three washes with PBS, the slides were incubated with the secondary Alexa Fluor 488‐labeled anti‐mouse or rabbit IgG antibody (#ab150077, #ab150113, 1:200; Invitrogen), or Alexa Fluor 594‐labeled anti‐rabbit IgG antibody (#a11012, 1:200; Invitrogen) at 25°C for 1 h. Nuclei were counterstained with 4′,6‐diamidino‐2‐phenylindole (DAPI; #D1306, 1:1,000; Invitrogen). […] IF intensity was observed and recorded with a Nikon Eclipse Ni‐E fluorescence microscope (Nikon).

[5] = test system: matrix cells of human HF bulbs; experiment: IF staining Ki-67 of ex vivo cultured HF bulb; assay type: cell-based; conditions: for Numbers of Ki-67-positive cells normalized to DAPI-stained cells: ex vivo cultured HF bulb, individual HFs, n = 8
From the text: as §1
Paraffin‐embedded mouse cutaneous back tissue was sectioned (4 μm thickness) and stained with hematoxylin and eosin. For IF staining, human ORS cells cultured in FiTC‐P5, sectioned paraffin‐embedded human HFs (7 μm thickness), and sectioned paraffin‐embedded mouse cutaneous dorsal tissue or human skin tissue (5 μm thickness) were incubated at 4°C overnight with the following primary antibodies diluted in the diluent reagent (Invitrogen): phospho‐AMPK (#2535, 1:100; Cell Signaling), Ki‐67 (#M7240, 1:200; Dako), versican (#ab177480, 1:200; Abcam), or AdipoR1 antibody (#ab126611, 1:200; Abcam). After three washes with PBS, the slides were incubated with the secondary Alexa Fluor 488‐labeled anti‐mouse or rabbit IgG antibody (#ab150077, #ab150113, 1:200; Invitrogen), or Alexa Fluor 594‐labeled anti‐rabbit IgG antibody (#a11012, 1:200; Invitrogen) at 25°C for 1 h. Nuclei were counterstained with 4′,6‐diamidino‐2‐phenylindole (DAPI; #D1306, 1:1,000; Invitrogen). Microscopic observations were performed with a Nikon Eclipse Ci‐L microscope (Nikon). IF intensity was observed and recorded with a Nikon Eclipse Ni‐E fluorescence microscope (Nikon).

[6] = test system: p-AMPK in human buttock skin; experiment: Topical application of P5 on human skin in vivo, p-AMPK (IF, Western blot); conditions: topical 0.075, 0.75, 1.5, or 7.5 mM on buttock, occluded, 24 h; IF and Western blot
From the text: Next, we checked whether topically applied P5 can be delivered into human skin using ex vivo skin tissue culture model (Fig EV4A) (Haslam et al, [2018]). After topical application of vehicle or P5 on the ex vivo skin tissue, the dermal lysate of each tissue was examined by the qualitative mass spectrometry (MS). […] To trace the origin of P5, we used isotope‐marked P5 (P5*), in which carbon (^12C) atoms of Gly were substituted with isotope carbon atoms (^13C) increasing the molecular weight by 2 compared to that of original P5 (Fig EV4B). […] Collectively, P5 can be transdermally delivered into human skin.
as §2
Paraffin‐embedded mouse cutaneous back tissue was sectioned (4 μm thickness) and stained with hematoxylin and eosin. […] IF intensity was observed and recorded with a Nikon Eclipse Ni‐E fluorescence microscope (Nikon). […]

GLYYF [P5, GST-fused (GST-P5) in pulldown assays]
Hair shaft growth ex vivo [1]: significantly promoted hair shaft growth ex vivo | Phosphorylation of AMPK, ORS cells [2]: concentration‐dependent phosphorylation of AMPK | protein_FGF7 ([3]; P5 5μM, relative to Control = 1, replicate 1): 1.396 | protein_FGF7 ([3]; P5 5μM, relative to Control = 1, replicate 2): 1.679 | protein_FGF7 ([3]; P5 5μM, relative to Control = 1, replicate 3): 1.269 | protein_FGF7 ([3]; P5 25μM, relative to Control = 1, replicate 1): 3.318 | protein_FGF7 ([3]; P5 25μM, relative to Control = 1, replicate 2): 3.35 | protein_FGF7 ([3]; P5 25μM, relative to Control = 1, replicate 3): 1.357 | FGF7 protein expression level ([3]; P5-treated DP cells, 48 h medium, n = 3): elevated | p-AMPK in HF bulb (IF staining) [4]: prominently detected in ORS and DP cells | Numbers of Ki-67-positive cells normalized to DAPI-stained cells ([5]; P5 5μM): 0.25 and 0.29 and 0.26 and 0.24 and 0.3 and 0.22 and 0.21 | Numbers of Ki-67-positive cells normalized to DAPI-stained cells ([5]; P5 25μM): 0.29 and 0.28 and 0.31 and 0.37 and 0.42 and 0.41 and 0.43 and 0.33 | Ki-67 in matrix cells of HF bulbs ([5]; ex vivo cultured human HFs, vs vehicle): increased significantly | Phosphorylation of AMPK in human skin in vivo [6]: induced the phosphorylation of AMPK in dermis as well as epidermis
